Patent publication US12077503B2, “Substituted cyclic amides and their use as herbicides” (FMC CORPORATION, priority 2015, dated 2024)

Key:
Assay type in all cases: in vivo
[1] = tested on: ragweed (common ragweed, Ambrosia elatior); experiment: Test A postemergence; conditions: Ambrosia artemisiifolia, post-emergence, 240 h, postemergence, read-out: Ragweed plant response rating
Summary of the method: (§1)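 Greenhouse, ~10 d after spray; visual injury vs untreated controls, 0 = no effect, 100 = complete control. Preemergence: directed soil spray over planted seeds. Postemergence: plants 2–10 cm, 1–2 leaf stage. Loam/sand blend. Compound in non-phytotoxic solvent with surfactant.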

[2] = tested on: wheat (Triticum aestivum); experiment: Test A postemergence; conditions: Triticum aestivum, post-emergence, 240 h, postemergence, read-out: Wheat plant response rating
Summary of the method: as §1

[3] = tested on: ryegrass, Italian (Italian ryegrass, Lolium multiflorum); experiment: Test A postemergence; conditions: Lolium multiflorum, post-emergence, 240 h, postemergence, read-out: Ryegrass, Italian plant response rating
Summary of the method: as §1

[4] = tested on: giant foxtail (Setaria faberii); experiment: Test A postemergence; conditions: Setaria faberi, post-emergence, 240 h, postemergence, read-out: Foxtail, Giant plant response rating
Summary of the method: as §1

[5] = tested on: barnyardgrass (Echinochloa crus-galli); experiment: Test A postemergence; conditions: Echinochloa crus-galli, post-emergence, 240 h, postemergence, read-out: Barnyardgrass plant response rating
Summary of the method: as §1

[6] = tested on: Galium (catchweed bedstraw, Galium aparine); experiment: Test A postemergence; conditions: Galium, post-emergence, 240 h, postemergence, read-out: Galium plant response rating
Summary of the method: as §1

[7] = tested on: blackgrass (Alopecurus myosuroides); experiment: Test A postemergence; conditions: Alopecurus myosuroides, post-emergence, 240 h, postemergence, read-out: Blackgrass plant response rating
Summary of the method: as §1

[8] = tested on: pigweed (Amaranthus retroflexus); experiment: Test A postemergence; conditions: Amaranthus retroflexus, post-emergence, 240 h, postemergence, read-out: Pigweed plant response rating
Summary of the method: as §1

corn (Zea mays) = experiment: Test A postemergence; conditions: Zea mays, post-emergence, 240 h, postemergence, read-out: Corn plant response rating
Summary of the method: as §1

[9] = tested on: ragweed (common ragweed, Ambrosia elatior); experiment: Test A preemergence; conditions: Ambrosia artemisiifolia, pre-emergence, 240 h, preemergence, 0 to 100 scale where 0 is no effect and 100 is complete control, read-out: Ragweed plant response rating
Summary of the method: as §1

[10] = tested on: ryegrass, Italian (Italian ryegrass, Lolium multiflorum); experiment: Test A preemergence; conditions: Lolium multiflorum, pre-emergence, 240 h, preemergence, 0 to 100 scale where 0 is no effect and 100 is complete control, read-out: Ryegrass, Italian plant response rating
Summary of the method: as §1

[11] = tested on: giant foxtail (Setaria faberii); experiment: Test A preemergence; conditions: Setaria faberi, pre-emergence, 240 h, preemergence, 0 to 100 scale where 0 is no effect and 100 is complete control, read-out: Foxtail, Giant plant response rating
Summary of the method: as §1

[12] = tested on: barnyardgrass (Echinochloa crus-galli); experiment: Test A preemergence; conditions: Echinochloa crus-galli, pre-emergence, 240 h, preemergence, 0 to 100 scale where 0 is no effect and 100 is complete control, read-out: Barnyardgrass plant response rating
Summary of the method: as §1

[13] = tested on: pigweed (Amaranthus retroflexus); experiment: Test A preemergence; conditions: Amaranthus retroflexus, pre-emergence, 240 h, preemergence, 0 to 100 scale where 0 is no effect and 100 is complete control, read-out: Pigweed plant response rating
Kochia (Kochia scoparia) = experiment: Test A preemergence; conditions: Bassia scoparia, pre-emergence, 240 h, preemergence, 0 to 100 scale where 0 is no effect and 100 is complete control, read-out: Kochia plant response rating
Summary of the method: as §1

[14] = 125 g ai/ha, visual injury on 0 to 100 scale (0 no effect, 100 complete control), approx. 10 d
[15] = 500 g ai/ha, 0 to 100 scale, 0 is no effect, 100 is complete control

CN1CC(c2cccc(/C=C/Cl)c2)C(C(=O)Nc2ccccc2F)C1=O (stereo not drawn) [Compound 1129]
50%: pest or weed control at 500 g/ha ([10]; 500 g ai/ha) | pest or weed control at 500 g/ha (Kochia (Kochia scoparia); 500 g ai/ha)
0%: pest or weed control at 125 g/ha [1, 14] | pest or weed control at 500 g/ha [1, 15] | plant injury at 125 g/ha [2, 14] | plant injury at 500 g/ha [2, 15] | pest or weed control at 125 g/ha [3, 14] | pest or weed control at 500 g/ha [3, 15] | pest or weed control at 125 g/ha [6, 14] | pest or weed control at 500 g/ha [6, 15] | pest or weed control at 125 g/ha [7, 14] | pest or weed control at 500 g/ha [7, 15] | pest or weed control at 125 g/ha [8, 14] | pest or weed control at 500 g/ha [8, 15] | plant injury at 125 g/ha (corn (Zea mays); [14]) | plant injury at 500 g/ha (corn (Zea mays); [15]) | pest or weed control at 125 g/ha ([9]; 125 g ai/ha, approx. 10 d) | pest or weed control at 500 g/ha ([9]; 500 g ai/ha) | pest or weed control at 125 g/ha ([13]; 125 g ai/ha, approx. 10 d) | pest or weed control at 500 g/ha ([13]; 500 g ai/ha) | pest or weed control at 125 g/ha (Kochia (Kochia scoparia); 125 g ai/ha, approx. 10 d)
40%: pest or weed control at 125 g/ha [5, 14]
80%: pest or weed control at 125 g/ha ([12]; 125 g ai/ha, approx. 10 d)
70%: pest or weed control at 125 g/ha [4, 14]
20%: pest or weed control at 125 g/ha ([10]; 125 g ai/ha, approx. 10 d)
90%: pest or weed control at 500 g/ha [4, 15] | pest or weed control at 500 g/ha [5, 15] | pest or weed control at 125 g/ha ([11]; 125 g ai/ha, approx. 10 d) | pest or weed control at 500 g/ha ([11]; 500 g ai/ha) | pest or weed control at 500 g/ha ([12]; 500 g ai/ha)
